One data set has as its target T1, Solute carrier organic anion transporter family member 1A3 (Rattus norvegicus, UniProt P70502).
T1 sequence (P70502 whole entry): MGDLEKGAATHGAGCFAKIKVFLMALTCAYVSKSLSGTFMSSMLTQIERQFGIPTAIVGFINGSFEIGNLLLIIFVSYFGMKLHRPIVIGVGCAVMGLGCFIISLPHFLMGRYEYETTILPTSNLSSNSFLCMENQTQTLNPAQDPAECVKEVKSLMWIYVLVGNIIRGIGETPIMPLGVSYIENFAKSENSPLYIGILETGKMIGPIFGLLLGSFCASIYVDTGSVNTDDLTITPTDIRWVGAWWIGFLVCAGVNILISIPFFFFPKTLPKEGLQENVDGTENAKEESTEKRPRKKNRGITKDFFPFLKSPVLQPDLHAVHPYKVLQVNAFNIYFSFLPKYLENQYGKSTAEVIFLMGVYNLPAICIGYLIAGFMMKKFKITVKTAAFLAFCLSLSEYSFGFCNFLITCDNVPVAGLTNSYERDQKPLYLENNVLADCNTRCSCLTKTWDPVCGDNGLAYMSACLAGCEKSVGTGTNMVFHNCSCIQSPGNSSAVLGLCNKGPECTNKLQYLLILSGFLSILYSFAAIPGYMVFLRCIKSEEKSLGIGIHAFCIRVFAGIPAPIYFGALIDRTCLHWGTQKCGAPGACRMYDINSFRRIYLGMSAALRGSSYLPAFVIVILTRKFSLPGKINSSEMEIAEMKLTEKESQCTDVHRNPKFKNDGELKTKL
Description: TP_TRANSPORTER: uptake in OAT-K2-expressing MDCK cells. The note with it: dog. In kind it is functional, cell-based.
Consider `CCCCC[C@H](O)/C=C/[C@H]1[C@H](O)CC(=O)[C@@H]1C/C=C\CCCC(=O)O` [DINOPROSTONE], for which the Activity entry is “substrate [+]”.

The target in the next data set is T1, Solute carrier organic anion transporter family member 1A3. Description: TP_TRANSPORTER: uptake in Xenopus laevis oocytes. The data set is classed as functional, cell-based. Conditions: oocyte.
`CN(Cc1cnc2nc(N)nc(N)c2n1)c1ccc(C(=O)N[C@@H](CCC(=O)O)C(=O)O)cc1` [METHOTREXATE]: the Activity result is “substrate [+]”.

In the case of `CCCCC[C@H](O)/C=C/[C@H]1[C@H](O)CC(=O)[C@@H]1C/C=C\CCCC(=O)O` [DINOPROSTONE], the Activity result is “substrate [+]”.

In the case of `Nc1nc2ncc(CNc3ccc(C(=O)N[C@@H](CCC(=O)O)C(=O)O)cc3)nc2c(=O)[nH]1` [FOLIC ACID], the Activity result is “substrate [+]”.

The target is the same in another data set. Description: TP_TRANSPORTER: inhibition of Taurocholate uptake in OAT-K2-expressing MDCK cells. The data set is classed as functional, cell-based. Conditions: dog.
In the case of `C[C@H](CCC(=O)NCC(=O)O)[C@H]1CC[C@H]2[C@@H]3[C@H](O)C[C@@H]4C[C@H](O)CC[C@]4(C)[C@H]3CC[C@]12C` [GLYCOCHENODEOXYCHOLATE], the Activity entry was “inhibitor [+]”.

For `C[C@H](CCC(=O)NCCS(=O)(=O)O)[C@H]1CC[C@H]2[C@@H]3CC[C@@H]4C[C@H](O)CC[C@]4(C)[C@H]3C[C@H](O)[C@]12C` [TAURODEOXYCHOLIC ACID], the Activity result is “inhibitor [+]”.

As to `C[C@H](CCC(=O)NCC(=O)O)[C@H]1CC[C@H]2[C@@H]3[C@H](O)C[C@@H]4C[C@H](O)CC[C@]4(C)[C@H]3C[C@H](O)[C@]12C` [GLYCOCHOLIC ACID], the Activity result was “inhibitor [+]”.

For `C[C@H](CCC(=O)O)[C@H]1CC[C@H]2[C@@H]3CC[C@@H]4C[C@H](O)CC[C@]4(C)[C@H]3C[C@H](O)[C@]12C` [DEOXYCHOLIC ACID], the Activity result is “inhibitor [+]”.

With `C[C@]12CC[C@@H]3c4ccc(O)cc4CC[C@H]3[C@@H]1CC[C@@H]2O` [ESTRADIOL], the Activity result was “inhibitor [+]”.

Turning to `C[C@@H]1C[C@H]2[C@@H]3CCC4=CC(=O)C=C[C@]4(C)[C@@]3(F)[C@@H](O)C[C@]2(C)[C@@]1(O)C(=O)CO` [DEXAMETHASONE], the Activity entry is “inhibitor [+]”.

In the case of `CC(=O)S[C@@H]1CC2=CC(=O)CC[C@]2(C)[C@H]2CC[C@@]3(C)[C@@H](CC[C@@]34CCC(=O)O4)[C@H]12` [SPIRONOLACTONE], the Activity entry is “inhibitor [+]”.

Consider `C[C@H](CCC(=O)NCCS(=O)(=O)O)[C@H]1CC[C@H]2[C@@H]3[C@H](O)C[C@@H]4C[C@H](O)CC[C@]4(C)[C@H]3CC[C@]12C` [TAUROCHENODEOXYCHOLATE], for which the Activity result is “inhibitor [+]”.

On to `COc1ccc2c(c1)c(CC(=O)O)c(C)n2C(=O)c1ccc(Cl)cc1` [INDOMETHACIN], for which the Activity result was “inhibitor [+]”.

On to `C[C@H](CCC(=O)O)[C@H]1CC[C@H]2[C@@H]3[C@@H](O)C[C@@H]4C[C@H](O)CC[C@]4(C)[C@H]3CC[C@]12C` [URSODIOL], for which the Activity result is “inhibitor [+]”.

Turning to `C[C@]12CC[C@@H]3c4ccc(O)cc4CC[C@H]3[C@@H]1C[C@@H](O)[C@@H]2O` [ESTRIOL], the Activity entry was “inhibitor [+]”.

As for `C[C@]12CC[C@H]3[C@@H](CCC4=CC(=O)CC[C@@]43C)[C@@H]1CC[C@@H]2O` [TESTOSTERONE], the Activity result is “inhibitor [+]”.

On to `C[C@]12C=CC(=O)C=C1CC[C@@H]1[C@@H]2[C@@H](O)C[C@@]2(C)[C@H]1CC[C@]2(O)C(=O)CO` [PREDNISOLONE], for which the Activity entry was “inhibitor [+]”.

`CCCN(CCC)S(=O)(=O)c1ccc(C(=O)O)cc1` [PROBENECID]: the Activity result was “inhibitor [+]”.

Take `O=C1OC(c2ccc(O)c(S(=O)(=O)[O-])c2)(c2ccc(O)c(S(=O)(=O)[O-])c2)c2c(Br)c(Br)c(Br)c(Br)c21.[Na+].[Na+]` [SULFOBROMOPHTHALEIN SODIUM]: the Activity entry is “inhibitor [+]”.

(Values after ChEMBL document CHEMBL2073966, “Cloning and functional characterization of a new multispecific organic anion transporter, OAT-K2, in rat kidney” (Mol Pharmacol, 1999).)
